The results in this text go back to US8729034B2, “Pharmaceutical composition having virucidal and spermicidal activity” (priority 2007, dated 2014).

One data set deals with Female cycling rats. Description: Intra uterine application of Ac-B and IUI in rat, fertilization outcome. Format: in vivo, Sprague-Dawley rats. As to the method:
Female cycling rats weighing 180-200 g were obtained from the institutional Animal House. The duplex nature of the rat uterus with separate cervical canal helped us to organize both control and experimental sets in the same animal with exposure to identical physiological milieu.
On the day of pro-estrous, both horns of the uterus were exposed by mid-ventral incision of the abdomen under light anesthesia following intra peritoneal injection of Ketamin at a concentration of 100 mg/kg body weight, supported by inhalation of anesthetic-ether, during 17.00-17.30 hours of the day. IUI was performed by injecting 50 microliters of sperm suspensions with varied concentration (25-30, 40-50, and 50-55 million sperms/ml) through a 24 G needle fitted onto a tuberculin syringe in the cervical end of the uterine lumen of each horn. The muscle in the injection site was held tightly for a while to prevent leakage through the puncture. Prior to IUI, each rat received a injection of 1.75 mg Ac-B in 50 microliters BWW medium in the left horn and simple BWW medium in the right horn. The opened abdominal muscle and skin layers were properly sutured by suturing silk thread. The outer most skin layers were further fixed by metal clips. The wound was properly cleaned with antiseptic lotions. Each operated animal was housed individually in fresh cage for collection and counting of unfertilized oocytes, two celled embryos, and fragmented bodies. […] The abdomen was opened and each of the fallopian tubes was collected carefully. The content of each tube was flushed out by introducing BWW medium into each tube with the help of a 30 G hypodermic needle in a watch glass. The flushed out lavage was examined under an inverted phase contrast microscope (Leitz, Labovert, ×100) to score the number of recovered fertilized/unfertilized eggs from individual fallopian tube.

Another data set has as its system female rabbits. The data set can be described thus: Contraceptive efficacy following intravaginal application in rabbits. Format: in vivo, New Zealand Rabbits. The note with it: intra-vaginal. The protocol:
Healthy virgin, nulliparous female rabbits were primed with PMSG (200 i.u.; i.p.; 96 hrs prior to testing) to induce ovulation. Serial dilutions (2.5 mg/ml, 10 mg/ml, 25 mg/ml and 50 mg/ml) of Ac-B in KY-jelly was prepared to be used as test solutions and only KY-jelly was used for control group. Two ml of test/control solution was introduced 6-8 cm deep into the vagina of each rabbit with by the syringe with gavaging needle. The animal was held in supine position for about five minutes and then hand-mated by the selected proven bucks. The buck was allowed one-time mating. To ensure ovulation 100 i.u. of hCG was administered through the marginal ear vein of each participating doe. The vaginal lavage of the mated doe was examined under a microscope. The presence of spermatozoa in the lavage was considered as confirmed mating. The mated does were kept in separate cages to complete their gestation period and the number of delivered pups was recorded. The mean value of the pups was calculated to determine the contraceptive potential.

A further data set deals with human sperm. The data set can be described thus: Live/dead staining (SYBR-14 / propidium iodide) of treated sperm. Format: cell-based. The protocol:
Live/dead staining kit (Invitrogen: Paisley, UK), using SYBR-14 in combination with propidium iodide (PI) was used for the purpose.
The SYBR-14 was prepared in anhydrous methyl sulfoxide (DMSO) at a concentration of 1 mg/ml. A working solution of SYBR-14 diluted 1:10 with DMSO was used for staining the sperm. The PI was dissolved in Tyrode's salt solution at 2 mg/ml.
The human sperm samples, pre-treated without (control) or with Ac-B (experimental) and Nonoxynol 9 (positive control) were incubated for 15 min at 36 degree C. before examination. […] The fluorescent staining of sperm was monitored and photographed with a Zeiss Axiophot epifluorescent microscope (Carl Zeiss Inc., Thornwood, N.Y.) equipped with a fluorescein isothiocyanate filter set (Zeiss #487909).
Viability of Ac-B-treated human spermatozoa was evaluated using a dual fluorescent live/dead staining kit (Invitrogen; Paisley, UK) consisting of SYBR 14 and propidium iodide (PI). PI cannot penetrate living cells but can bind to and stain cellular DNA in damaged cells giving them red fluorescence. On completion of staining reaction, proportionate distribution of green (live) and red (dead) stained spermatozoa was recorded using dual emission filter for SYBR14 and propidium iodide. In the control set all sperms were stained green but the Ac-B-treated spermatozoa (125 mcg/ml) were stained red.

Another data set concerns rat spermatozoa. Description: Hypo-osmotic swelling (HOS) test. Format: cell-based. As to the method:
A hypotonic solution was prepared by dissolving 0.735 g sodium citrate dehydrate and 1.351 g fructose in 100 ml distilled water (Milli Q). Aliquots of this solution kept frozen in −20 degree C. and thawed before use. For the test, 200 microliters of working suspension of rat spermatozoa was treated with one ml of Ac-B solution (at MEC) or BWW (as control) for 20 seconds followed by washing with BWW medium and centrifugation at 1000 rpm for 5 min. Finally the sperm pellet was resuspended in 0.1 ml BWW medium. One ml of prewarmed (37 degree C.) HOS solution was added to the suspension and incubated for one hour at 37 degree C. The incubated sperms were examined under a phase contrast microscope at ×400 magnification to observe the curling of tails. Two hundred spermatozoa were examined for each sample.

Data set [1] deals with Lactobacillus acidophilus. Format: cell-based. As to the method:
The media for culture of bacteria purchased from HI-MEDIA, India and spores of Lactobacillus acidophilus were obtained from pharmaceutical capsule marketed by Infer (India) Limited.
Sterile, molten (45-50 degree C.) Lactobacilli MRS agar was poured into sterile Petri dishes with (a) 1, 10, 100, 200, 500 mg of Ac-B (Experimental) and (b) without Ac-B (Control). The plates were placed within an incubator having 37 degree C. inside temperature and 5% CO2 in air for 72 hours. The number of colonies and their individual size were compared.

The mark [2] stands for this setting: 1.75 mg Ac-B intrauterine, sperm count 25-30 million/ml (N = 3).
The mark [3] stands for this setting: 1.75 mg Ac-B intrauterine, sperm count 40-50 million/ml (N = 4).
Where [4] appears, read: 1.75 mg Ac-B intrauterine, sperm count 50-55 million/ml (N = 4).

“Also recorded” adds a separate entry of the source.

Acaciaside-B [Ac-B]: the “Fertilized (number of eggs), treated horn” value in the data set with Female cycling rats (1.75 mg Ac-B in 50 microliters BWW intrauterine before IUI, sperm count 25-30 million/ml (N = 3), flushing 38-40 hours after IUI) is given as 0 (0%); with Female cycling rats (setting [3]) it was 0 (%); in the data set on Female cycling rats (setting [4]) it was 3. Besides, the results for the “Fertilized (%), treated horn” value with Female cycling rats (setting [2]) and with Female cycling rats (setting [4]) were 0 (0%) and 18%, respectively. The “Unfertilized (%), treated horn” value is 100% with Female cycling rats (setting [2]), 100% in the data set with Female cycling rats (setting [3]) and 82% in the data set on Female cycling rats (setting [4]). Besides, the “Unfertilized (number of eggs), treated horn” value was determined as 17 with Female cycling rats (setting [2]), 19 in the data set with Female cycling rats (setting [3]) and 13 in the data set on Female cycling rats (setting [4]). The “Mean numbers of pups delivered” value in the data set with female rabbits (2 ml of 2.5 mg/ml Acaciaside-B in K-Y jelly (n = 5)) is recorded as 3.4; in the data set with female rabbits (2 ml of 10 mg/ml Acaciaside-B in K-Y jelly (n = 5)), 2.2; with female rabbits (2 ml of 25 mg/ml Acaciaside-B in K-Y jelly (n = 5)), 0.2; in the data set on female rabbits (2 ml of 50 mg/ml Acaciaside-B in K-Y jelly (n = 5)), 0.0. For the same substance, in the data set on human sperm (Ac-B 125 mcg/ml, green = live, red = dead), the “Live/dead staining colour of treated spermatozoa” value is reported as “stained red”. The “Percentage of dead spermatozoa, Live/dead staining” value in the data set with human sperm (human sperm pre-treated with Ac-B) was 92 (±5)%. Besides, in the data set on rat spermatozoa (Ac-B at MEC for 20 seconds, 1 hour in HOS solution at 37 degree C), the “Response to HOS (HOS+), Hypo-osmotic Swelling Test” value is listed as 0% (HOS+). For the same substance, the “HOS reactivity (curling of tails) of treated spermatozoa” value with rat spermatozoa (Ac-B treated) is given as “no HOS reactivity; also recorded: absence of curling”. The “Dose level not affecting growth of Lactobacillus acidophilus” value in data set [1] is at least 500 mg/mL. Besides, the “Size of Lactobacillus colonies grown in the presence of Ac-B” value in data set [1] is listed as “comparable to that of control”.
